Here are results for 22 molecules from the OPERA property sets (Mansouri et al. 2018).

The term logP denotes the decadic logarithm of the partition coefficient of the neutral form, usually between octanol and water.

With `CC(=O)NNC(=O)Nc1cccc([N+](=O)[O-])c1`, the lipophilicity (logP) worked out at 0.67.

Molecule `CC(=O)NNC(=O)Nc1cccc(C(F)(F)F)c1` showed a logP of 1.59.

For the molecule `CC(=O)NNC(=O)Nc1ccc(N(C)C)cc1`, the logP is 0.11.

In turn, `CCOc1ccc(NC(=O)NNC(C)=O)cc1` registered a logP of 0.51.

`CC(=O)NNC(=O)Nc1cccc(Cl)c1`: the logP was found to be 1.33.

The molecule `CC(=O)NNC(=O)Nc1cccc(F)c1` yielded a logP of 0.73.

Molecule `CC(=O)NNC(=O)Nc1ccc(C#N)cc1` had a logP of 0.38.

Take `CC(=O)NNC(=O)Nc1ccc(O)cc1`: the logP is -0.79.

Regarding `CC(=O)NNC(=O)Nc1ccc(I)cc1`, the logP was 1.65.

In turn, `CC(=O)NNC(=O)Nc1ccc(C)cc1` had a logP of 0.67.

In turn, `CC(=O)NNC(=O)Nc1ccc(F)cc1` displayed a logP of 0.45.

In the case of `CC(=O)NNC(=O)Nc1ccc([N+](=O)[O-])cc1`, the logP worked out at 0.77.

The molecule `CC(=O)NNC(=O)Nc1ccc(Br)cc1` had a logP of 1.38.

Regarding `CC(=O)NNC(=O)Nc1ccc(Oc2ccccc2)cc1`, the logP amounted to 2.01.

As to `COc1cccc(NC(=O)NNC(C)=O)c1`, the logP was determined as 0.33.

Consider `CC(=O)NNC(=O)Nc1cccc(I)c1`, for which the logP is 1.71.

In turn, `CC(=O)NNC(=O)Nc1ccccc1` came in with a logP of 0.25.

Molecule `CC(=O)NNC(=O)Nc1ccc(C(C)(C)C)cc1` yielded a logP of 2.08.

With `COc1ccc(NC(=O)NNC(C)=O)cc1`, the logP came to 0.11.

Consider `CC(=O)NNC(=O)Nc1ccc(Cl)cc1`, for which the log partition coefficient (logP) was determined as 1.12.

`CC(=O)NNC(=O)Nc1cccc(Br)c1`: the logP is 1.48.

Regarding `CC(=O)NNC(=O)Nc1cccc(C)c1`, the logP is 0.75.
